{"source": "ChEMBL document CHEMBL4041538", "about": "“Bioreductively activatable prodrug conjugates of phenstatin designed to target tumor hypoxia” (Bioorg Med Chem Lett, 2017)", "key": {"[1]": {"experiment": "Inhibition of bovine brain tubulin polymerization preincubated for 15 mins followed by GTP addition measured after 20 mins by Spectrophotometric method", "set-up": "species or system Bos taurus"}, "Bos taurus": {"organism": "Bos taurus", "experiment": "Inhibition of [3H]colchicine binding to bovine brain tubulin at 5 uM after 10 mins by scintillation counting method relative to control"}, "[2]": {"experiment": "Drug metabolism in pH 7.4 PBS assessed as compound hydrolysis after 24 hrs by HPLC method", "format": "physicochemical", "settings": "read-out: Drug metabolism"}, "[3]": {"biological_target": "T1, NADPH--cytochrome P450 reductase (P450 oxidoreductase) (Rattus norvegicus, UniProt P00388)", "T1 sequence (P00388 whole entry)": "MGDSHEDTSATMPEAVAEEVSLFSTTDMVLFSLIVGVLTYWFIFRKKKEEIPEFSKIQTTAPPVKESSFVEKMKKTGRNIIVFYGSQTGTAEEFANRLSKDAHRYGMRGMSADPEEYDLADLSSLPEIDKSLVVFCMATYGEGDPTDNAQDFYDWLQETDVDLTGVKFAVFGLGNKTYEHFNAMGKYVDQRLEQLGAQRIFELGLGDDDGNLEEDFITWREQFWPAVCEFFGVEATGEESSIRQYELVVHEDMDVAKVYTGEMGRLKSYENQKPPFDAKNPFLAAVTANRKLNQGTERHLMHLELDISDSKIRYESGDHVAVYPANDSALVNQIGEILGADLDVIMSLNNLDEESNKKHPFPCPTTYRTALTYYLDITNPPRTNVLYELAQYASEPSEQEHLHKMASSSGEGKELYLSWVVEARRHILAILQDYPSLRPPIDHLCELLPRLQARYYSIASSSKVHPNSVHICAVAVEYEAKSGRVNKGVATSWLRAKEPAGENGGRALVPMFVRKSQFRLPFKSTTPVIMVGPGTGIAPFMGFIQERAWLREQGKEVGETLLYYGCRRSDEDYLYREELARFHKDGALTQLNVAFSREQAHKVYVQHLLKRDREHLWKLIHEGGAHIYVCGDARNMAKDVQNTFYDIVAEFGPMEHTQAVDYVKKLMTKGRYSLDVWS", "experiment": "Drug metabolism in pH 7.4 PBS assessed as rat P450 oxidoreductase-mediated compound hydrolysis preincubated for 20 mins followed by protocatechuate 3,4-dioxygenase addition to create anoxic condition and subsequent addition of P450 oxidoreductase in presence of NADPH after 24 hrs by HPLC method", "format": "ADME", "settings": "rat P450 oxidoreductase with NADPH in PBS, read-out: Drug metabolism"}}, "data": [{"smiles": "COc1ccc(C(=O)c2cc(OC)c(OC)c(OC)c2)cc1O", "note": "[PHENSTATIN]", "values": [{"measurement": "IC50", "setting": "[1]", "value": 1, "unit": "µM"}, {"measurement": "inhibition", "setting": "Bos taurus", "value": 85, "unit": "%"}]}, {"smiles": "COc1ccc(C(=O)c2cc(OC)c(OC)c(OC)c2)cc1OC(C)c1ccc([N+](=O)[O-])cc1", "note": "(stereo unspecified)", "values": [{"measurement": "IC50", "setting": "[1]", "value": "> 20", "unit": "µM"}, {"measurement": "inhibition", "setting": "Bos taurus", "value": 5.8, "unit": "%"}]}, {"smiles": "COc1ccc(C(=O)c2cc(OC)c(OC)c(OC)c2)cc1OC(C)c1ccc([N+](=O)[O-])o1", "note": "(stereo unspecified)", "values": [{"measurement": "IC50", "setting": "[1]", "value": 12, "unit": "µM"}, {"measurement": "inhibition", "setting": "Bos taurus", "value": 16, "unit": "%"}]}, {"smiles": "COc1ccc(C(=O)c2cc(OC)c(OC)c(OC)c2)cc1OC(C)c1cnc([N+](=O)[O-])n1C", "note": "(stereo unspecified)", "values": [{"measurement": "IC50", "setting": "[1]", "value": "> 20", "unit": "µM"}, {"measurement": "inhibition", "setting": "Bos taurus", "value": 11, "unit": "%"}]}, {"smiles": "COc1ccc(C(=O)c2cc(OC)c(OC)c(OC)c2)cc1OCc1ccc([N+](=O)[O-])s1", "values": [{"measurement": "IC50", "setting": "[1]", "value": 16, "unit": "µM"}, {"measurement": "inhibition", "setting": "Bos taurus", "value": 19, "unit": "%"}]}, {"smiles": "COc1ccc(C(=O)c2cc(OC)c(OC)c(OC)c2)cc1OC(C)(C)c1ccc([N+](=O)[O-])cc1", "values": [{"measurement": "degraded at 24 h", "setting": "[2]", "value": 0, "unit": "%"}, {"measurement": "metabolised at 24 h", "setting": "[3]", "value": 0, "unit": "%"}, {"measurement": "IC50", "setting": "[1]", "value": "> 20", "unit": "µM"}, {"measurement": "inhibition", "setting": "Bos taurus", "value": 8.8, "unit": "%"}]}, {"smiles": "COc1ccc(C(=O)c2cc(OC)c(OC)c(OC)c2)cc1OCc1cnc([N+](=O)[O-])n1C", "values": [{"measurement": "IC50", "setting": "[1]", "value": "> 20", "unit": "µM"}, {"measurement": "inhibition", "setting": "Bos taurus", "value": 7.1, "unit": "%"}]}, {"smiles": "COc1ccc(C(=O)c2cc(OC)c(OC)c(OC)c2)cc1OC(C)c1ccc([N+](=O)[O-])s1", "note": "(stereo unspecified)", "values": [{"measurement": "IC50", "setting": "[1]", "value": "> 20", "unit": "µM"}, {"measurement": "inhibition", "setting": "Bos taurus", "value": 15, "unit": "%"}]}, {"smiles": "COc1ccc(C(=O)c2cc(OC)c(OC)c(OC)c2)cc1OCc1ccc([N+](=O)[O-])cc1", "values": [{"measurement": "IC50", "setting": "[1]", "value": "> 20", "unit": "µM"}, {"measurement": "inhibition", "setting": "Bos taurus", "value": 11, "unit": "%"}]}, {"smiles": "COc1ccc(C(=O)c2cc(OC)c(OC)c(OC)c2)cc1OCc1ccc([N+](=O)[O-])o1", "values": [{"measurement": "IC50", "setting": "[1]", "value": 15, "unit": "µM"}, {"measurement": "inhibition", "setting": "Bos taurus", "value": 17, "unit": "%"}]}, {"smiles": "COc1ccc(/C=C\\c2cc(OC)c(OC)c(OC)c2)cc1O", "note": "[COMBRETASTATIN A4]", "values": [{"measurement": "IC50", "setting": "[1]", "value": 0.73, "unit": "µM"}]}, {"smiles": "COc1ccc(C(=O)c2cc(OC)c(OC)c(OC)c2)cc1OC(C)(C)c1ccc([N+](=O)[O-])o1", "values": [{"measurement": "degraded at 24 h", "setting": "[2]", "value": 0, "unit": "%"}, {"measurement": "metabolised at 24 h", "setting": "[3]", "value": 100, "unit": "%"}, {"measurement": "IC50", "setting": "[1]", "value": "> 20", "unit": "µM"}, {"measurement": "inhibition", "setting": "Bos taurus", "value": 13, "unit": "%"}]}, {"smiles": "COc1ccc(C(=O)c2cc(OC)c(OC)c(OC)c2)cc1OC(C)(C)c1ccc([N+](=O)[O-])s1", "values": [{"measurement": "degraded at 24 h", "setting": "[2]", "value": 0, "unit": "%"}, {"measurement": "metabolised at 24 h", "setting": "[3]", "value": 100, "unit": "%"}, {"measurement": "IC50", "setting": "[1]", "value": 9, "unit": "µM"}, {"measurement": "inhibition", "setting": "Bos taurus", "value": 16, "unit": "%"}]}]}
